Literature values as cited in PMC7150867, “Molecular Imaging of Galectin-1 Expression as a Biomarker of Papillary Thyroid Cancer by Using Peptide-Functionalized Imaging Probes” (Biology, 2020).

Text: To validate the effectiveness of gal-1-targeted peptides, another type of probe and therefore imaging of thyroid cancer was explored. Owing to its high sensitivity, in the order of nanomolar, resolution in the range of 50–130 µm, and nonionizing radiation, FLI appears as a promising imaging technique in the field of biomedical research and clinical diagnosis of a wide range of pathologies. In oncology, FLI enables early diagnosis and the depiction of the extent of cancer invasion, improving the accuracy of tumor resection.

Sequence: YSWHIDIVAPRN [Peptide P7, gal-1-targeted 12-mer linear peptide identified by phage display]
- LogP: 1.02
- LogD7.4 (pH 7.4): −7.63
